Results from patent publication US7667036B2, “Pyrazolo[1,5-a]pyrimidine derivatives” (Teijin Pharma Limited, priority 2004, dated 2010).

Target: MAPKAP-K2 (Homo sapiens, UniProt P49137)
Assay: MAPKAP-K2 enzyme activity inhibition assay, Method B (33P-ATP, MultiScreen-PH plate)
Type: biochemical
Conditions: recombinant human MAPKAP-K2, 0.5% DMSO, 30 min room temperature, read-out: Inhibitory activity (MAPKAP-K2 IC50 class)
Procedure: The assay of inhibitory activity was performed according to Method A described below for Compound No. 1, 2, 3, 4, 20, 21, 22, 23, 24, 25, 26, 79, 80 and 81, and Method B described below for the other compounds.
A compound was dissolved in […] to make its concentration to 20 mmol/L, and the resultant solution was stored at −20° C. The stock solution was sequentially diluted with DMSO to prepare a solution having a 200-fold concentration of the required range. Further the solution was diluted with water to 1:20 to prepare a solution having a 10-fold concentration of the required range, and an aliquot of 5 μL of each solution was used for every reaction with 50 μL. During the continuous dilution of all compounds, the final DMSO concentration was maintained at 0.5%. Compounds were routinely tested at a final concentration ranging from 100 μmol/L to 0.03 μmol/L, but were sometimes tested at a lower concentration depending upon their activity.
The reaction was initiated by adding 25 μL of a peptide substrate solution [60 μmol/L substrate peptide, 20 μmol/L ATP, 50 mmol/L Tris buffer (pH 7.5), 0.1 mmol/L EGTA, 0.1% β-mercaptoetanol, 20 mmol/L magnesium acetate, and 0.1 μCi [γ-33P]ATP (specific radio activity: approximately 110 TBq/mmol)] to 5 μL of a 5% DMSO solution of the test compound and subsequently adding 20 μL of a MAPKAP-K2 enzyme solution [10 mU recombinant human MAPKAP-K2, 50 mmol/L Tris buffer (pH 7.5), 0.1 mmol/L EGTA, 0.1% β-mercaptoethanol, 0.1% BSA]. After performing the reaction for 30 min at room temperature, an equivalent volume of 200 mmol/L phosphoric acid solution was added to terminate the reaction. Subsequently, 90 μL of the reaction product was adsorbed on a MultiScreen-PH Plate (Millipore) and then rinsed with 100 mmol/L phosphoric acid solution. After drying the plate, 30 μL of MicroScint-O (Packard BioScience) was added, and further the count per minute was measured by a scintillation counter to determine the inhibitory activity. The substrate peptide was Lys-Lys-Leu-Asn-Arg-Tlr-Leu-Ser-Val-Ala.
• % Control=(X−B)/(Tot−B)×100 • % Inhibition=100—% Control • X=count per minute of a test compound well • B=count per minute of a well without containing enzyme • Tot=count per minute of a well with DMSO solvent only, without containing the test compound (MAPKAP-K2 inhibitory activity) • IC50 value=the compound concentration at 50% inhibition

Chain of MAPKAP-K2 (P49137 whole entry): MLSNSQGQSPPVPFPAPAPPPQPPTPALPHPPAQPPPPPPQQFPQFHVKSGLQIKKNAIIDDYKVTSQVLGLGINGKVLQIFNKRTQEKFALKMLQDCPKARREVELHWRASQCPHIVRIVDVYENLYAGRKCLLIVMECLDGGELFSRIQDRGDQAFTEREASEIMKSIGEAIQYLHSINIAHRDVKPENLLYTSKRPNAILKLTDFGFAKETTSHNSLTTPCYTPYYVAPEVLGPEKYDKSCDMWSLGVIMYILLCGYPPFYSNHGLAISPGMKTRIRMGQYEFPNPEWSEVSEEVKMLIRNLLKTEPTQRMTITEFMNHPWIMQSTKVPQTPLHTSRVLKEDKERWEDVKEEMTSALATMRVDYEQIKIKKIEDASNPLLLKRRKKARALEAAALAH

Row | IC50 [µM] | SMILES
1 | 2 to 20 | CCOc1ccc(Nc2c(C)c(O[C@@H]3CNCC[C@H]3CC(=O)NC)nc3ccnn23)cc1 [compound 83]
2 | 20 to 100 | CCOc1ccc(Nc2c(C)c(OC3CC(C)(C)CC(C)(CN)C3)nc3ccnn23)cc1 (stereo not shown) [compound 44]
3 | ≤ 2 | Cc1c(O[C@H]2CC[C@@H](N)CC2)nc2ccnn2c1Nc1ccc(OCc2ccccc2)cc1 [compound 76]
4 | 2 to 20 | COc1ccc(Cl)cc1Nc1c(C)c(O[C@H]2CC[C@@H](N)CC2)nc2ccnn12 [compound 64]
5 | ≤ 2 | CCn1c2ccccc2c2cc(Nc3c(C)c(O[C@H]4CC[C@@H](N)CC4)nc4ccnn34)ccc21 [compound 65]
6 | ≤ 2 | Cc1c(O[C@H]2CC[C@@H](N)CC2)nc2ccnn2c1Nc1ccc(OCCN2CCOCC2)cc1 [compound 90]
7 | 20 to 100 | Cc1c(OC2CCCNC2)nc2ccnn2c1Nc1cc(OC2CCCNC2)c(C#N)cc1F (stereo not shown) [compound 49]
8 | 20 to 100 | Cc1c(OC2CCCNC2)nc2ccnn2c1Nc1ccc(C#N)c(C(F)(F)F)c1 (stereo not shown) [compound 53]
9 | 2 to 20 | Cc1c(OC2CCCNC2)nc2ccnn2c1Nc1ccc(OC(F)(F)F)c(Cl)c1 (stereo not shown) [compound 57]
10 | ≤ 2 | Cc1c(O[C@H]2CC[C@@H](N)CC2)nc2ccnn2c1Nc1ccc(O)cc1 [compound 78]
11 | 2 to 20 | Cc1c(OC2CCCNC2)nc2ccnn2c1Nc1cccc(NS(C)(=O)=O)c1 (stereo not shown) [compound 48]
12 | ≤ 2 | Cc1c(O[C@H]2CC[C@@H](N)CC2)nc2ccnn2c1Nc1ccc2nc(SC(C)C)sc2c1 [compound 75]
13 | 2 to 20 | Cc1c(OC2CCCNC2)nc2ccnn2c1Nc1ccc(SC(F)(F)F)cc1 (stereo not shown) [compound 54]
14 | ≤ 2 | CCOc1ccc(Nc2c(C)c(O[C@H]3CNCC[C@@H]3CCO)nc3ccnn23)cc1 [compound 41]
15 | ≤ 2 | CCOc1ccc(Nc2c(C)c(O[C@@H]3CNCC[C@H]3CCO)nc3ccnn23)cc1 [compound 27]
16 | 2 to 20 | CCOc1ccc(Nc2c(C)c(O[C@@H]3CNCC[C@H]3CC(=O)NCc3ccccc3)nc3ccnn23)cc1 [compound 85]
17 | 2 to 20 | C=CCc1c(O[C@H]2CC[C@@H](N)CC2)nc2ccnn2c1Nc1ccc(F)c(Cl)c1 [compound 12]
18 | ≤ 2 | Cc1c(O[C@H]2CC[C@@H](N)CC2)nc2ccnn2c1Nc1ccc(SC(F)(F)F)cc1 [compound 73]
19 | 2 to 20 | CCn1c2ccccc2c2cc(Nc3c(C)c(OC4CCCNC4)nc4ccnn34)ccc21 (stereo not shown) [compound 56]
20 | ≤ 2 | CSc1nc2ccc(Nc3c(C)c(O[C@H]4CC[C@@H](N)CC4)nc4ccnn34)cc2s1 [compound 46]
21 | 20 to 100 | CCOc1ccc(Nc2c(-c3ccccc3)c(OCCN)nc3ccnn23)cc1 [compound 273]
22 | 2 to 20 | Cc1c(OC2CCCNC2)nc2ccnn2c1Nc1ccc(S(=O)(=O)N2CCOCC2)cc1 (stereo not shown) [compound 61]
23 | 20 to 100 | N[C@H]1CC[C@@H](Oc2cc(Nc3ccc(F)c(Cl)c3)n3ncc(I)c3n2)CC1 [compound 19]

Continued, compound first:

Row | SMILES | IC50 [µM]
24 | CCOc1ccc(Nc2c(C)c(OCC(N)CC)nc3ccnn23)cc1 (stereo not shown) [compound 36] | 20 to 100
25 | CCOc1ccc(Nc2c(C)c(O[C@@H]3CN(C(=O)OCc4ccccc4)CC[C@H]3CC(=O)NCc3ccccc3)nc3ccnn23)cc1 [compound 87] | 20 to 100
26 | CSc1nc2ccc(Nc3c(C)c(OC4CCCNC4)nc4ccnn34)cc2s1 (stereo not shown) [compound 45] | ≤ 2
27 | CCc1c(O[C@H]2CC[C@@H](N)CC2)nc2ccnn2c1Nc1ccc(I)cc1 [compound 102] | ≤ 2
28 | CCOc1ccc(Nc2c(C)c(OCCCN)nc3ccnn23)cc1 [compound 29] | 20 to 100
29 | Cc1c(O[C@H]2CC[C@@H](N)CC2)nc2ccnn2c1Nc1ccc(C(=O)c2ccccc2)cc1 [compound 70] | ≤ 2
30 | COc1ccc(Nc2ccc(Nc3c(C)c(OC4CCCNC4)nc4ccnn34)cc2)cc1 (stereo not shown) [compound 59] | ≤ 2
31 | CCOc1ccc(Nc2c(C)c(OCC3(N)CCCC3)nc3ccnn23)cc1 [compound 40] | 20 to 100
32 | CCOc1ccc(Nc2c(C)c(OC(CN)c3ccccc3)nc3ccnn23)cc1 (stereo not shown) [compound 31] | 20 to 100
33 | N[C@H]1CC[C@@H](Oc2nc3ccnn3c(Nc3ccc(OCc4ccccc4)cc3)c2-c2ccccc2)CC1 [compound 274] | 2 to 20
34 | CCOc1ccc(Nc2c(C)c(O[C@@H]3CNCC[C@H]3CC(=O)NC3CC3)nc3ccnn23)cc1 [compound 86] | 2 to 20
35 | CCOc1ccc(Nc2c(C)c(OC3CCN(C)CC3)nc3ccnn23)cc1 [compound 253] | 2 to 20
36 | Cc1c(O[C@H]2CC[C@@H](N)CC2)nc2ccnn2c1Nc1cc(F)c(C#N)cc1F [compound 68] | 2 to 20
37 | Cc1c(O[C@H]2CC[C@@H](N)CC2)nc2ccnn2c1Nc1ccc(C#N)c(C(F)(F)F)c1 [compound 72] | ≤ 2
38 | Cc1c(O[C@H]2CC[C@@H](N)CC2)nc2ccnn2c1NC1CCCC1 [compound 271] | 2 to 20
39 | COC(=O)c1ccc(Nc2c(C)c(OC3CCCNC3)nc3ccnn23)cc1 (stereo not shown) [compound 47] | 2 to 20
40 | CCOc1ccc(Nc2c(C)c(OCC(C)=O)nc3ccnn23)cc1 [compound 259] | 20 to 100
41 | CCOc1ccc(Nc2c(C)c(OC[C@H]3CCCN3)nc3ccnn23)cc1 [compound 260] | 20 to 100
42 | CCOc1ccc(Nc2c(C)c(OC[C@@H]3CCCN3)nc3ccnn23)cc1 [compound 261] | 20 to 100
43 | CC(=O)c1ccc(Nc2c(C)c(OC3CCCNC3)nc3ccnn23)cc1 (stereo not shown) [compound 62] | 2 to 20
44 | CCc1c(O[C@H]2CC[C@@H](N)CC2)nc2ccnn2c1Nc1ccccc1F [compound 9] | 2 to 20
45 | CCOc1ccc(Nc2c(C)c(OCCNC)nc3ccnn23)cc1 [compound 263] | 20 to 100

Row | SMILES | IC50 [µM]
46 | CCOc1ccc(Nc2c(C)c(O[C@@H]3CC[C@@H](C)NC3)nc3ccnn23)cc1 [compound 17] | 2 to 20
47 | CCOc1ccc(Nc2c(C)c(O[C@@H]3CNCC[C@H]3CC(=O)N(C)C)nc3ccnn23)cc1 [compound 84] | 2 to 20
48 | Cc1c(OC2CCCNC2)nc2ccnn2c1Nc1ccc(Cc2ccccc2)cc1 (stereo not shown) [compound 52] | 2 to 20
49 | c1ccc(COc2ccc(Nc3c(-c4ccccc4)c(OC4CCCNC4)nc4ccnn34)cc2)cc1 (stereo not shown) [compound 275] | 2 to 20
50 | CCc1c(O[C@H]2CC[C@@H](N)CC2)nc2ccnn2c1Nc1ccc(F)c(Cl)c1 [compound 10] | 2 to 20
51 | CCOc1ccc(Nc2c(C)c(OCC(N)(CO)CO)nc3ccnn23)cc1 [compound 43] | 20 to 100
52 | Cc1c(OC2CCCNC2)nc2ccnn2c1NCc1ccccc1 (stereo not shown) [compound 269] | 2 to 20
53 | Cc1c(OCCN)nc2ccnn2c1NCc1ccccc1 [compound 270] | 20 to 100
54 | CCOc1ccc(Nc2c(C)c(OC3CCN(C)C3)nc3ccnn23)cc1 (stereo not shown) [compound 256] | 20 to 100
55 | CCOc1ccc(Nc2c(C)c(OCCCCN)nc3ccnn23)cc1 [compound 30] | 2 to 20
56 | Cc1c(OC2CCCNC2)nc2ccnn2c1Nc1ccc(C(=O)c2ccccc2)cc1 (stereo not shown) [compound 51] | 2 to 20
57 | CCOc1ccc(Nc2c(C)c(OC3CNCCC3CO)nc3ccnn23)cc1 (stereo not shown) [compound 58] | 2 to 20
58 | Cc1c(O[C@H]2CC[C@@H](N)CC2)nc2ccnn2c1NCc1ccccc1 [compound 268] | 2 to 20
59 | Cc1c(OC2CCCNC2)nc2ccnn2c1Nc1cccc2cnccc12 (stereo not shown) [compound 63] | 20 to 100
60 | CCOc1ccc(Nc2c(C)c(O[C@@H]3CC[C@H](C)NC3)nc3ccnn23)cc1 [compound 18] | 20 to 100
61 | CCOc1ccc(Nc2c(C)c(OC3CCNCC3)nc3ccnn23)cc1 [compound 239] | ≤ 2
62 | CCOc1ccc(Nc2c(C)c(OCC(C)N)nc3ccnn23)cc1 (stereo not shown) [compound 33] | 20 to 100
63 | COc1cc(Nc2c(C)c(OC3CCCNC3)nc3ccnn23)cc(OC)c1 (stereo not shown) [compound 50] | 20 to 100
64 | CCOc1ccc(Nc2c(C)c(O[C@@H]3CNCC[C@H]3CC(N)=O)nc3ccnn23)cc1 (racemic) [Compound No. 82, (dl)-trans-2-{3-[7-(4-ethoxyphenyamino)-6-methylpyrazolo[1,5-a]pyrimidin-5-yloxyl-p]peridin-4-yl}acetamide] | 2 to 20
65 | CCOc1ccc(Nc2c(C)c(OCC3CCCNC3)nc3ccnn23)cc1 (stereo not shown) [compound 244] | 2 to 20
66 | Cc1ccc2nc(-c3ccc(Nc4c(C)c(OC5CCCNC5)nc5ccnn45)cc3)sc2c1 (stereo not shown) [compound 60] | ≤ 2
67 | CCOc1ccc(Nc2c(C)c(OC(CN)CN)nc3ccnn23)cc1 [compound 42] | 20 to 100
